Reference: the kinase profiling compilation of Christmann-Franck et al. (2016)

Legend:
Assay in all cases: KINOMEscan competition binding
Details in all cases: compound 10.0 µM
[1] = molecular target: SBK1 (human) (UniProt Q52WX2)
[2] = molecular target: NEK4 (human) (UniProt P51957)
[3] = molecular target: SRPK1 (human) (UniProt Q96SB4)
[4] = molecular target: RPS6KA1 KD1 (human) (UniProt Q15418)
[5] = molecular target: MAP3K12 (human) (UniProt Q12852)
[6] = molecular target: ULK1 (human) (UniProt O75385)
[7] = molecular target: CDK3 (human) (UniProt Q00526)
[8] = molecular target: CSF1R (human) (UniProt P07333)
Chain of CSF1R (human) (P07333 whole entry, looked up): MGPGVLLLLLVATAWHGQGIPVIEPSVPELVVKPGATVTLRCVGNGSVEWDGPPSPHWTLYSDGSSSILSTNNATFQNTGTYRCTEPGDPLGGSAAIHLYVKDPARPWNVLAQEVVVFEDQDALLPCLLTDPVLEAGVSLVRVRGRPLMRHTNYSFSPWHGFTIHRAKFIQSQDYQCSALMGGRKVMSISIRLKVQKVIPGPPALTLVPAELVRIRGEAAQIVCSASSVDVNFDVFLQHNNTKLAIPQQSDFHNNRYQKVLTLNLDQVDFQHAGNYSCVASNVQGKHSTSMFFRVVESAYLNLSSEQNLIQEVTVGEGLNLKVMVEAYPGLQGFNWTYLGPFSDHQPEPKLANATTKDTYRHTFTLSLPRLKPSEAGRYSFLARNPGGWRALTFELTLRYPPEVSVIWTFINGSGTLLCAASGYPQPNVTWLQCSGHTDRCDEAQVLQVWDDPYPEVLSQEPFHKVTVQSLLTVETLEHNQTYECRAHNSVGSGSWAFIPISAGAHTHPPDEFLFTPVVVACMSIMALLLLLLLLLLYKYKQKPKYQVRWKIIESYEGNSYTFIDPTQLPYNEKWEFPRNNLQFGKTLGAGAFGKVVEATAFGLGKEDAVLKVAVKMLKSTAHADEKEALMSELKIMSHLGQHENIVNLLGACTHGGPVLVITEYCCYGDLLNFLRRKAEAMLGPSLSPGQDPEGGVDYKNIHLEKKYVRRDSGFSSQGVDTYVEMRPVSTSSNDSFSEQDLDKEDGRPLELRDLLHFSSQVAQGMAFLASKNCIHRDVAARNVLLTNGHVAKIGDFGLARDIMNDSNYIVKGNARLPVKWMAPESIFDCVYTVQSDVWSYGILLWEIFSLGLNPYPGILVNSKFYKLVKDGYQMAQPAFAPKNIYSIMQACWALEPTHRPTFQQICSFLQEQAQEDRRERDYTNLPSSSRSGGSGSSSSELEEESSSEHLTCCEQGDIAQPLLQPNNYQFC

[9] = molecular target: EPHA2 (human) (UniProt P29317)
[10] = molecular target: STK32A (human) (UniProt Q8WU08)
[11] = molecular target: NEK5 (human) (UniProt Q6P3R8)
[12] = molecular target: MAP3K2 (human) (UniProt Q9Y2U5)
Chain of MAP3K2 (human) (Q9Y2U5 whole entry, looked up): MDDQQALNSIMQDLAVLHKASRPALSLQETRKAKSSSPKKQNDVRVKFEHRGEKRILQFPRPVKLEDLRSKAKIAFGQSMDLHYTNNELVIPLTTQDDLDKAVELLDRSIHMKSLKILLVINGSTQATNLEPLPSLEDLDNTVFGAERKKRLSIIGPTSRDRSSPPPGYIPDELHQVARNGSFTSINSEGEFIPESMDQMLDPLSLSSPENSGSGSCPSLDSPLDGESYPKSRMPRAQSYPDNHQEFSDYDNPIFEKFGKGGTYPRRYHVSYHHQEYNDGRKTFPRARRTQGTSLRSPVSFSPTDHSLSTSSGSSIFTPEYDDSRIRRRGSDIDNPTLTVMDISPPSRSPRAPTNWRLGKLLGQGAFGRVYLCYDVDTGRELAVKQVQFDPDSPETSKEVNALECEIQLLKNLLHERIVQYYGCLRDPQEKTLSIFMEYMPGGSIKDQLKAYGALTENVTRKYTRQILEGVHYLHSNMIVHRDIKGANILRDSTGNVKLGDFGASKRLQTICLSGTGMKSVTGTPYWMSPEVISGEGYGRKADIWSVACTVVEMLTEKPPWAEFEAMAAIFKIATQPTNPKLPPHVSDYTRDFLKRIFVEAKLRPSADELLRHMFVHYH

[13] = test system: RET (human), P07949 [V804L]
Chain of RET (human), P07949 [V804L] (P07949 whole entry V804L, looked up): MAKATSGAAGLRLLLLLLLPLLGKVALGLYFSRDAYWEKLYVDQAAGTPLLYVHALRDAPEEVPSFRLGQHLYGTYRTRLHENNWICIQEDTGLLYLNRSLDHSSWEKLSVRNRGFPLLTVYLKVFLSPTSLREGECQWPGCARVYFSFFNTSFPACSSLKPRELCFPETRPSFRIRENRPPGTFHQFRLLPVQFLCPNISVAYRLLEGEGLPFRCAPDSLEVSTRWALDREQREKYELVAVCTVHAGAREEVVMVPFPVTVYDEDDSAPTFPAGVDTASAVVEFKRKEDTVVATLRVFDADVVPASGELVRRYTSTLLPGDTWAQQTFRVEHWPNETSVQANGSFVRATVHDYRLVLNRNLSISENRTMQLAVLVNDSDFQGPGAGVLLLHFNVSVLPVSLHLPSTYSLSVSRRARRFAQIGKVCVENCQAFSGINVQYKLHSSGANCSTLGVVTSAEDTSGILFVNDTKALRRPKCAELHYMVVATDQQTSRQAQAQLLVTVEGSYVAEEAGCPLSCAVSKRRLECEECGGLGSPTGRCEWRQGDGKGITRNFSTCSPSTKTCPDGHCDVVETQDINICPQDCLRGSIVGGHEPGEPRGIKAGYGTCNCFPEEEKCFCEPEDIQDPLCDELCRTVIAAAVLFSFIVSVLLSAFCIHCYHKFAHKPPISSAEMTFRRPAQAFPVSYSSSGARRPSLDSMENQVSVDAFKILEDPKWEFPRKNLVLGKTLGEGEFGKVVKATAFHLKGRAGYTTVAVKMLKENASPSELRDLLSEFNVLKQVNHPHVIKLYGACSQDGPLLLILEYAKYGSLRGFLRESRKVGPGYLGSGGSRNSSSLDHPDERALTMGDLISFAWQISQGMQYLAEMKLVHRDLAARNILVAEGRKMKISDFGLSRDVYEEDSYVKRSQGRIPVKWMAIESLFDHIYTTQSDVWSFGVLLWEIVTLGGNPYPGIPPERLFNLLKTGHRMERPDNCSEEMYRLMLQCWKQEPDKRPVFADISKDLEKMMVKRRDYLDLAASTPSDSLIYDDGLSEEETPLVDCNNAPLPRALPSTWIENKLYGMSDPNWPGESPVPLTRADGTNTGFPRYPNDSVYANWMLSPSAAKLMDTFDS

[14] = molecular target: RIOK3 (human) (UniProt O14730)
Chain of RIOK3 (human) (O14730 whole entry, looked up): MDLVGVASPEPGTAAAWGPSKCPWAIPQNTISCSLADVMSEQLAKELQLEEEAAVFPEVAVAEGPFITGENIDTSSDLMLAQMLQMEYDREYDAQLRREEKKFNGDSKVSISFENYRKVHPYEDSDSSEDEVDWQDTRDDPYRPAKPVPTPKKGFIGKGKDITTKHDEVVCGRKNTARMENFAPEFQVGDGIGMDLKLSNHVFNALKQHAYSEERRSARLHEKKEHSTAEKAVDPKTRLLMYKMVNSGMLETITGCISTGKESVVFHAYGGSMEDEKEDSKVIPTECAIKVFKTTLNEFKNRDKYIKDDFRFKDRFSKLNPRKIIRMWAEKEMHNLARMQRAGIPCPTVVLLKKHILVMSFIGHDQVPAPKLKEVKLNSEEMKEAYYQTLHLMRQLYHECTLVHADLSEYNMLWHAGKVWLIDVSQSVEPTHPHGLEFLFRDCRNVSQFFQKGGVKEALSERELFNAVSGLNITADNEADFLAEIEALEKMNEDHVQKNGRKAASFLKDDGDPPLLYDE

[15] = molecular target: FGFR4 (human) (UniProt P22455)
[16] = molecular target: NEK3 (human) (UniProt P51956)
[17] = test system: KIT (human), P10721 [D816V]
[18] = molecular target: TGFBR1 (human) (UniProt P36897)
[19] = molecular target: NIM1 (human) (UniProt Q8IY84)
[20] = molecular target: STK32B (human) (UniProt Q9NY57)
[21] = molecular target: AAK1 (human) (UniProt Q2M2I8)
Chain of AAK1 (human) (Q2M2I8 whole entry, looked up): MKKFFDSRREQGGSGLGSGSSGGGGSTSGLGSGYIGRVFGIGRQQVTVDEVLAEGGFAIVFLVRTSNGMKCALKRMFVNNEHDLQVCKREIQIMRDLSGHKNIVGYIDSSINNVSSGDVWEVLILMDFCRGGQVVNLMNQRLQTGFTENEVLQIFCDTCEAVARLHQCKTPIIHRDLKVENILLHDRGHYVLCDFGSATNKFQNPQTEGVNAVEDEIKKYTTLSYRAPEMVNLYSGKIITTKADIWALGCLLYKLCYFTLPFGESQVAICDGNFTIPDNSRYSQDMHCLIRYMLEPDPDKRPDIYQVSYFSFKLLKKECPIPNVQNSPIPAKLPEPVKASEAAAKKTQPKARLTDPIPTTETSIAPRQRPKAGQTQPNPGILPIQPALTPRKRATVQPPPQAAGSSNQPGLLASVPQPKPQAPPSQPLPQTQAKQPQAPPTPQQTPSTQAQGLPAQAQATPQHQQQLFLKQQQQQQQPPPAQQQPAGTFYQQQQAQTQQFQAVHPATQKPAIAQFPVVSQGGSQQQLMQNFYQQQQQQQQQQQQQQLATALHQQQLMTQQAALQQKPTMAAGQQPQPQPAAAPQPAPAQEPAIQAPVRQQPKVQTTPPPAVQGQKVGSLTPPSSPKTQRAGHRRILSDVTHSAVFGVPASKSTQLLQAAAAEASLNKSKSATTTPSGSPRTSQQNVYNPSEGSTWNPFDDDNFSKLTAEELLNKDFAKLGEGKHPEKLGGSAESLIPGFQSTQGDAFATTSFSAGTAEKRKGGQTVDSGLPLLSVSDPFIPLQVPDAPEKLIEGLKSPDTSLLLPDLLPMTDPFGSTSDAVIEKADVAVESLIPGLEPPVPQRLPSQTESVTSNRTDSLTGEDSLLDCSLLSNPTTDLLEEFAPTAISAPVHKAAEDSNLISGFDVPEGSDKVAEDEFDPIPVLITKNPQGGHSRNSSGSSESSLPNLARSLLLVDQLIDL

[22] = molecular target: SGK110 (human) (UniProt P0C264)
[23] = molecular target: DMPK (human) (UniProt Q09013)
[24] = molecular target: EPHB3 (human) (UniProt P54753)
[25] = molecular target: CLK3 (human) (UniProt P49761)
[26] = molecular target: TNK1 (human) (UniProt Q13470)
[27] = molecular target: MAP2K1 (human) (UniProt Q02750)
[28] = molecular target: MAP2K2 (human) (UniProt P36507)
[29] = test system: FLT3 (human), P36888 [D835H]
[30] = molecular target: STK11 (human) (UniProt Q15831)
Chain of STK11 (human) (Q15831 whole entry, looked up): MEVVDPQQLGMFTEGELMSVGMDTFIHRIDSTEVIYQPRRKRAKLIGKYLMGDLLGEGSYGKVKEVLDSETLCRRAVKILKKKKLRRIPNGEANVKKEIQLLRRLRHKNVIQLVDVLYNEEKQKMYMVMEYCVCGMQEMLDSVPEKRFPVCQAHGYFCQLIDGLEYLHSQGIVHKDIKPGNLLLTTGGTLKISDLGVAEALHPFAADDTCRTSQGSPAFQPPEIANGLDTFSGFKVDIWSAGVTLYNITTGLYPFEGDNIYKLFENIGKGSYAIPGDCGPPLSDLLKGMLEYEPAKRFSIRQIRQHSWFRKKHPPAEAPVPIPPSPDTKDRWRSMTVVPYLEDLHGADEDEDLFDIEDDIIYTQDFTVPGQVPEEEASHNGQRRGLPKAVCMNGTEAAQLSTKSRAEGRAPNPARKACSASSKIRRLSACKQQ

[31] = molecular target: DDR2 (human) (UniProt Q16832)
[32] = molecular target: FYN (human) (UniProt P06241)
[33] = molecular target: HIPK1 (human) (UniProt Q86Z02)
[34] = molecular target: RPS6KA5 KD1 (human) (UniProt O75582)
[35] = molecular target: HIPK3 (human) (UniProt Q9H422)
[36] = molecular target: MAPK8 (human) (UniProt P45983)
[37] = test system: MET (human), P08581 [M1250T]
[38] = molecular target: STK36 (human) (UniProt Q9NRP7)
[39] = molecular target: PHKG2 (human) (UniProt P15735)
Chain of PHKG2 (human) (P15735 whole entry, looked up): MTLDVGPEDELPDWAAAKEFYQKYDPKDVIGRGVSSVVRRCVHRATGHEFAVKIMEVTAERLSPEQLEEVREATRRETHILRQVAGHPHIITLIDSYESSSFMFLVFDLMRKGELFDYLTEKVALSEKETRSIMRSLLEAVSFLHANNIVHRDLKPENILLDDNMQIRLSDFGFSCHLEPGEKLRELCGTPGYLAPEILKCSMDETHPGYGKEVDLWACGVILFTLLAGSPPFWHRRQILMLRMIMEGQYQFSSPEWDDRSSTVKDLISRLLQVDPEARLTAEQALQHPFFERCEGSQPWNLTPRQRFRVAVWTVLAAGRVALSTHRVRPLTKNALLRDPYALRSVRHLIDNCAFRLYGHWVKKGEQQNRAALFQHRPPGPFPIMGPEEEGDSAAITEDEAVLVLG

[40] = molecular target: MYLK4 (human) (UniProt Q86YV6)
[41] = test system: PIK3CA (human), P42336 [Q546K]

Row | SMILES | kinase still bound, per cent of control [1] | kinase still bound, per cent of control [2] | kinase still bound, per cent of control [3] | kinase still bound, per cent of control [4] | per cent of control [5] | kinase still bound, per cent of control [6] | per cent of control [7] | kinase still bound, per cent of control [8] | kinase still bound, per cent of control [9] | kinase still bound, per cent of control [10] | kinase still bound, per cent of control [11] | kinase still bound, per cent of control [12] | kinase still bound, per cent of control [13] | kinase still bound, per cent of control [14] | kinase still bound, per cent of control [15] | kinase still bound, per cent of control [16] | kinase still bound, per cent of control [17] | kinase still bound, per cent of control [18] | kinase still bound, per cent of control [19] | kinase still bound, per cent of control [20] | also measured
1 | CC(C)n1nc(-c2cc3cc(O)ccc3[nH]2)c2c(N)ncnc21 | 92% | 90% | 100% | 32% | 84% | 86% | 100% | 33% | 9.4% | 1.8% | 86% | 4.8% | 12% | 83% | 12% | 55% | 2.5% | 1.1% | 88% | 8.2% | kinase still bound, per cent of control [21]: 31%; kinase still bound, per cent of control [22]: 100%; kinase still bound, per cent of control [23]: 0.55%; kinase still bound, per cent of control [24]: 81%; kinase still bound, per cent of control [25]: 66%; kinase still bound, per cent of control [26]: 34%; kinase still bound, per cent of control [27]: 0.25%; kinase still bound, per cent of control [28]: 0.4%; kinase still bound, per cent of control [29]: 7.4%; kinase still bound, per cent of control [30]: 79%; kinase still bound, per cent of control [31]: 11%; kinase still bound, per cent of control [32]: 4.6%; kinase still bound, per cent of control [33]: 1.9%; kinase still bound, per cent of control [34]: 100%; kinase still bound, per cent of control [35]: 0.9%; kinase still bound, per cent of control [36]: 89%; kinase still bound, per cent of control [37]: 100%; kinase still bound, per cent of control [38]: 100%; kinase still bound, per cent of control [39]: 12%; kinase still bound, per cent of control [40]: 43%
2 | COC(=O)Nc1ccc(-c2nc(N3CCOCC3)c3cnn(C4CCN(C(=O)OC)CC4)c3n2)cc1 | 100% | 90% | 100% | 100% | 97% | 84% | 100% | 90% | 100% | 100% | 100% | 89% | 84% | 100% | 100% | 100% | 100% | 100% | 100% | 100% | kinase still bound, per cent of control [41]: 6.8%; kinase still bound, per cent of control [21]: 86%; kinase still bound, per cent of control [22]: 92%; kinase still bound, per cent of control [23]: 100%; kinase still bound, per cent of control [24]: 74%; kinase still bound, per cent of control [25]: 100%; kinase still bound, per cent of control [26]: 100%; kinase still bound, per cent of control [27]: 100%; kinase still bound, per cent of control [28]: 100%; kinase still bound, per cent of control [29]: 91%; kinase still bound, per cent of control [30]: 100%; kinase still bound, per cent of control [31]: 100%; kinase still bound, per cent of control [32]: 99%; kinase still bound, per cent of control [33]: 57%; kinase still bound, per cent of control [34]: 100%; kinase still bound, per cent of control [35]: 72%; kinase still bound, per cent of control [36]: 100%; kinase still bound, per cent of control [38]: 91%; kinase still bound, per cent of control [39]: 86%; kinase still bound, per cent of control [40]: 99%
